In brackets after ≈: the same amount, converted by molar mass. Like-named read-outs stand apart in the source and are kept apart here.
Assays:
[1] = test system: Arabidopsis thaliana seeds; assay: Germination assay; assay type: in vivo; conditions: Minimal Inhibitory Concentration, 3 d in darkness after 4 d stratification
Description: Germination experiments were performed with Arabidopsis thaliana seeds of wildtype Col0, Ler, or mutant backgrounds.
Seeds were sterilized by 30 sec incubation in 70% ethanol solution followed by a 5 min […] (while vigorously shaking) in a bleach-Tween solution. Afterwards, the sterilizing solutions were removed, and five washes were performed with sterile distilled water. To enhance complete removal of the solutions between the different steps, short centrifuge spins were performed. Finally, the now surface-sterilized seeds were re-suspended in an aseptic 0.1% agar solution to simplify distribution over multiwall plates. One drop of the solution contained on average 20-30 seeds.
In the multiwell plates, seeds were plated onto 0.7% agar Murashige amd Skoog (MS) plant growth medium containing one-half MS salts and 0.5% sucrose containing different concentrations of ABA, quinabactin, or the compound of interest. After 4 d of stratification at 4° C., the plates were transferred to a growth chamber in darkness and allowed to germinate for 3 d before germination was evaluated. The results are shown above in Table 1 and FIGS. 3A and 3B.

PYL2^V114I mutant [2] = biological target: T1, PYL2^V114I mutant (Arabidopsis thaliana, UniProt O80992, V114I); conditions: cited from earlier work
T1 construct: made in house

PYL2 = biological target: T2, PYL2 (Arabidopsis thaliana, UniProt O80992); assay: PP2C inhibition assay, recombinant PYL2 receptor; assay type: biochemical
T2 sequence (O80992 1-190): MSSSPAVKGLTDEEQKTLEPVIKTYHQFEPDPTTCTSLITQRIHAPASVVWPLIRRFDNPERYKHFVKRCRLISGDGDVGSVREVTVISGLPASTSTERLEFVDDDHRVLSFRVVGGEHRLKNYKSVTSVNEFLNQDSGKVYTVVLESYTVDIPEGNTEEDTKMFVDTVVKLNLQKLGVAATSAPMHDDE
T2 sequence (Q9CAJ0 23-511 partner): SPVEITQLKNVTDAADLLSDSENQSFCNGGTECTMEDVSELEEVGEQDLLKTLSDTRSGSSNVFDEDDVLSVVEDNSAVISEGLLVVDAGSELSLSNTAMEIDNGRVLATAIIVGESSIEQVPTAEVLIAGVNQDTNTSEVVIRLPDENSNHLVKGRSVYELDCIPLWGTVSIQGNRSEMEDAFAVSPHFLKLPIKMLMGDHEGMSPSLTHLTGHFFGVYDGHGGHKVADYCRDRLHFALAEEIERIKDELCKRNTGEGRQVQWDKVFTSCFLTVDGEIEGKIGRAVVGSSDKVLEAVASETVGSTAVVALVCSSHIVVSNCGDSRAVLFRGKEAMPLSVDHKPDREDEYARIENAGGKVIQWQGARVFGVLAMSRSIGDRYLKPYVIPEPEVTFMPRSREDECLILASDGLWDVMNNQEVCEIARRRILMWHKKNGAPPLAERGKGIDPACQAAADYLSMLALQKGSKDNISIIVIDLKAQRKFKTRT
Description: (§1) Reactions were started by adding 40 μL of a reaction solution containing 25 mM 4-nitrophenyl phosphate in assay buffer, after which absorbance measurements were immediately collected using a 405 nm on Wallac plate reader. Reactions contained 100 nM PP2C and 200 nM PYR/PYL proteins. […] The dose response data was fitted to a log (inhibitor) vs response-(variable slope) model using non-linear regression to infer the IC50 values using Graph Pad Prism 6.0.

PYR1 = biological target: T3, PYR1 (Arabidopsis thaliana, UniProt O49686); assay: PP2C inhibition assay, recombinant PYR1 receptor; assay type: biochemical
T3 sequence (O49686 1-191): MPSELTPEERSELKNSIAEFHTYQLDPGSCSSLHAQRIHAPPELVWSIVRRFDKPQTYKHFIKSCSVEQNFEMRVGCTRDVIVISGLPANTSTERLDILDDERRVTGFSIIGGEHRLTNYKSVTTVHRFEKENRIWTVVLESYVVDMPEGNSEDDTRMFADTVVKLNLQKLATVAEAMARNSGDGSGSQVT
T3 sequence (Q9CAJ0 23-511 partner): T2 sequence (Q9CAJ0 23-511 partner)
Description: as §1

PYR1^I110V mutant [3] = biological target: T4, PYR1^I110V mutant (Arabidopsis thaliana, UniProt O49686, I110V); conditions: cited from earlier work
T4 construct: made in house

adult Arabidopsis plants = assay: Thermal imaging assay of sprayed adult plants; assay type: in vivo; conditions: sprayed at 50 uM dose on adult Arabidopsis plants; compared with quinabactin and ABA at the same dose
Source text: Molecules that elicit ABA-like effects in vivo typically close guard cells, which arrests transpirational water loss, resulting in less efficient cooling of the leaf surface and a concomitant increase in leaf surface temperature. Infrared thermography has recently emerged as an attractive, noninvasive technique to evaluate plant leaf surface temperature.
For the adult plants used for thermal imaging, seeds were sterilized as described in Example 3. Afterwards, the seeds were spread onto 0.7% agar MS plant growth medium containing one-half MS salts and 0.5% sucrose. After 4 d of stratification at 4° C., these plates were transferred to a growth chamber in light and allowed to germinate and grow for 7 d. The seedlings then were transferred into soil, and plants of 3-4 wk old were used for thermal imaging. Before thermal imaging, topical spraying of the plants was performed with a water solution containing an active agent (50 μM ABA, quinabactin, or a test compound of interest), 0.5% DMSO, and 0.02% polyalkyleneoxide modified heptamethyltrisiloxane surfactant (Silwet-77). Thermal images were collected just before spraying, 24 h after treatment, and 48 h after treatment. Treated plants were compared to mock-treated plants that had been sprayed with water containing 0.5% DMSO and 0.02% Silwet-77.
Thermal images were collected at 16 h after treatment. Thermal images were quantified using the Flir tools software version 5.2.15161.1001 by measuring the average leaf temperature of 5-6 leaves per plant. Average temperatures were calculated for 10 replicate plants (in 5 pots) per treatment. Statistical comparisons between the treated and the mock-treated plants were performed using pairwise t-tests. In the graphs represented in FIG. 1B, error bars represent the standard error of mean, asterisks symbols indicate statistical significance, and * indicates p≤0.05, ** for p≤0.01, *** for p≤0.001.

PYR1^I110V mutant [4] = biological target: T4, PYR1^I110V mutant; assay: Phosphatase inhibition assay with PYR1 I110V mutant; assay type: biochemical
Description: (§2) Without intending to be bound by theory, subtle changes in the binding pockets of PYR1/PYL2 proteins can dictate the orientation of pyrabactin and contribute towards its selectivity towards PYR1 vs PYL2. […] Cyanabactin's activity was tested with the PYR1^I110V and the reciprocal PYL2^V114I mutants to provide possible insights into its selectivity for PYR1 vs PYL2.
(§3) Recombinant PYR1^I110V and PYL2^V114I proteins were prepared using a previously described protocol previously (Peterson Peterson, F. C. et al., “Structural Basis for Selective Activation of ABA Receptors,” Nat. Struct. Mol. Biol. 2010, 17 (99), 1109-1113) and tested in absorbance based phosphatase inhibition assay using p-nitrophenol phosphate as substrate as previously described.

PYL2^V114I mutant [5] = biological target: T1, PYL2^V114I mutant; assay: Phosphatase inhibition assay with PYL2 V114I mutant; assay type: biochemical
Description: as §2, §3

[6] = recombinant receptor 200 nM, PP2C 100 nM, 4-nitrophenyl phosphate substrate, absorbance 405 nm, read-out: IC50 PYL2
[7] = recombinant receptor 200 nM, PP2C 100 nM, 4-nitrophenyl phosphate substrate, absorbance 405 nm, read-out: IC50 PYR1
[8] = recombinant mutant receptor, p-nitrophenol phosphate substrate

T4 sequence (O49686 whole entry I110V, one chain of several): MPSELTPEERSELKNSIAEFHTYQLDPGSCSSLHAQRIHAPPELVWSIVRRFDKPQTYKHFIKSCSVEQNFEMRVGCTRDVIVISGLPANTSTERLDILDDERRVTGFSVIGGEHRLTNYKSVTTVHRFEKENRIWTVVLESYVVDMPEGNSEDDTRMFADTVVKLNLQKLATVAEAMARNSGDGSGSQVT
T1 sequence (O80992 whole entry V114I, one chain of several): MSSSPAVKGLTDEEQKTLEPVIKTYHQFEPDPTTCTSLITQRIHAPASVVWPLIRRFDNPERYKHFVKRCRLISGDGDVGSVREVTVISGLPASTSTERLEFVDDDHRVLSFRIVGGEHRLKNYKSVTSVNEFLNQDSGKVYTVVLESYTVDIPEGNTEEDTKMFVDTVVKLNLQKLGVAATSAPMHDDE

IC50 (PYL2; [6])	IC50 (PYR1; [7])	SMILES	MIC (μM) Germination [1]	responsiveness of PYL2^V114I mutant as compared to WT PYL2 (PYL2^V114I mutant [2])	IC50 (PYL2)	IC50 (PYR1)	responsiveness of PYR1^I110V mutant as compared to wild-type PYR1 (PYR1^I110V mutant [3])	increase of leaf surface temperature (adult Arabidopsis plants)	fold less active in PYR1^I110V mutant as compared to WT PYR1 (PYR1^I110V mutant [4]; ratio of IC50s)	IC50 (PYR1^I110V mutant [4]; [8])	fold more active in PYL2^V114I mutant as compared to WT PYL2 (PYL2^V114I mutant [5]; ratio of IC50s)	IC50 (PYL2^V114I mutant [5]; [8])
7.46 ± 0.469 µM	0.112 ± 0.015 µM	CCOc1cc(NS(=O)(=O)Cc2ccc(C)cc2)ccc1C#N [Ligand Q26, N-(4-Cyano-3-ethoxyphenyl)-1-(4-methylphenyl)methanesulfonamide]	10 µM (≈ 3.3 µg/mL)					increase the leaf surface temperature significantly				
2.69 ± 0.064 µM	0.048 ± 0.0003 µM	CCc1cc(NS(=O)(=O)Cc2ccc(C)cc2)ccc1C#N [Ligand Q29, N-(4-Cyano-3-ethylphenyl)-1-(4-methylphenyl)methanesulfonamide]	5 µM (≈ 1.57 µg/mL)					to a lesser extent				
2.91 ± 0.27 µM	0.1 ± 0.0004 µM	CCCc1cc(NS(=O)(=O)Cc2ccc(C)cc2)ccc1C#N [Ligand Q31, N-(4-Cyano-3-propylphenyl)-1-(4-methylphenyl)methanesulfonamide]	10 µM (≈ 3.28 µg/mL)					to a lesser extent				
1.61 ± 0.023 µM	0.22 ± 0.018 µM	CCCc1cc(NS(=O)(=O)Cc2ccc(C)cc2)cc(C)c1C#N [Ligand Q32, N-(4-Cyano-3-methyl-5-propylphenyl)-1-(4-methylphenyl)methanesulfonamide]	10 µM (≈ 3.42 µg/mL)					to a lesser extent				

Further lines, the compound ahead of its results:

SMILES	IC50 (PYL2; [6])	IC50 (PYR1; [7])	MIC (μM) Germination [1]	responsiveness of PYL2^V114I mutant as compared to WT PYL2 (PYL2^V114I mutant [2])	IC50 (PYL2)	IC50 (PYR1)	responsiveness of PYR1^I110V mutant as compared to wild-type PYR1 (PYR1^I110V mutant [3])	increase of leaf surface temperature (adult Arabidopsis plants)	fold less active in PYR1^I110V mutant as compared to WT PYR1 (PYR1^I110V mutant [4]; ratio of IC50s)	IC50 (PYR1^I110V mutant [4]; [8])	fold more active in PYL2^V114I mutant as compared to WT PYL2 (PYL2^V114I mutant [5]; ratio of IC50s)	IC50 (PYL2^V114I mutant [5]; [8])
CC1=CC(=O)CC(C)(C)[C@@]1(O)/C=C/C(C)=C\C(=O)O [ABA, Abscisic acid, reference compound]			1 µM (≈ 0.264 µg/mL)	retained responsiveness	0.039 ± 0.0023 µM	0.111 ± 0.0038 µM	retained responsiveness					
Cc1ccc(CS(=O)(=O)Nc2ccc(C#N)c(C3CC3)c2)cc1 [Ligand Q27, N-(4-Cyano-3-cyclopropylphenyl)-1-(4-methylphenyl)methanesulfonamide]	3.27 µM	0.087 µM	5 µM (≈ 1.63 µg/mL)					increase the leaf surface temperature significantly	approximately 9 fold	0.787 µM	3.3 fold	0.981 µM
CCc1cc(NS(=O)(=O)Cc2ccc(C)cc2)cc(C)c1C#N [Ligand Q30, N-(4-Cyano-3-ethyl-5-methylphenyl)-1-(4-methylphenyl)methanesulfonamide]	0.969 ± 0.077 µM	0.072 ± 0.015 µM	10 µM (≈ 3.28 µg/mL)					increase the leaf surface temperature significantly				
O=S(=O)(NCc1ccccn1)c1ccc(Br)c2ccccc12 [pyrabactin]				gains pyrabactin responsiveness			dramatically loses pyrabactin responsiveness					
